In patent US4857546A, “Novel HMG-CoA reductase inhibitors” (Merck & Co., Inc., priority 1988, dated 1989):

molecular target: T1, HMG-CoA reductase (Rattus norvegicus, UniProt P51639); assay: intrinsic HMG-CoA reductase inhibition, in vitro protocol of J. Med. Chem. 28, 347-358 (1985); type: biochemical; details: IC50 of test compound compared with that of compactin (mevastatin) determined simultaneously; compactin assigned 100
T1 sequence (P51639 1-887): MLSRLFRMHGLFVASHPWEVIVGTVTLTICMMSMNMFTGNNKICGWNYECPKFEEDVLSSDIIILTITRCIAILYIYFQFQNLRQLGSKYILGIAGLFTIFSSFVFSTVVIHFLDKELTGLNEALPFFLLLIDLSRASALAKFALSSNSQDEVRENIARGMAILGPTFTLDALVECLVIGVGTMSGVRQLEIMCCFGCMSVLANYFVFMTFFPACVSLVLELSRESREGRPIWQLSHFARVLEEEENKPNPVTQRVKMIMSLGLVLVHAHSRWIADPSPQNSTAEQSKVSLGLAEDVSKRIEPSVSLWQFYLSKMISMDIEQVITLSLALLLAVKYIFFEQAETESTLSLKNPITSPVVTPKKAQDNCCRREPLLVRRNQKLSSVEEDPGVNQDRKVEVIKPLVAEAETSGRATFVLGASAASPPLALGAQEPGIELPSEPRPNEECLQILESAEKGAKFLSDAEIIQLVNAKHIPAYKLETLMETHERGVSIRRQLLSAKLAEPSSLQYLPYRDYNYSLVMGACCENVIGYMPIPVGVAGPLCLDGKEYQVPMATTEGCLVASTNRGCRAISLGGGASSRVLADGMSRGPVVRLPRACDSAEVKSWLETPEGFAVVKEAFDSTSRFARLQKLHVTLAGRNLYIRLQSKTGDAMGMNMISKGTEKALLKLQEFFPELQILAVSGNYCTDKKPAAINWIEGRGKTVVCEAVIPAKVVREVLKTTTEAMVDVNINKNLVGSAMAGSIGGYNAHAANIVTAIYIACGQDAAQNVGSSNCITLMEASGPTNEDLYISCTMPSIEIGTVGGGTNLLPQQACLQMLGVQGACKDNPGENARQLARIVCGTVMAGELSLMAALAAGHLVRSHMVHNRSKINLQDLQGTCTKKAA
Description: The intrinsic HMG-CoA reductase inhibition activity of the claimed compounds is measured in the in vitro protocol published in J. Med. Chem. 28, p. 347-358 (1985).
For estimation of relative inhibitory potencies, mevastatin (compactin) was assigned a value of 100 and the IC50 value of the test compound was compared with that of compactin determined simultaneously in the published in vitro protocol.

Structure (SMILES)	Relative Potency
CCC(C)(C)C(=O)O[C@H]1C[C@H](CN)C=C2C=C[C@H](C)[C@H](CC[C@@H](O)C[C@@H](O)CC(=O)O)[C@H]21 [Example 1]	125
CCC(C)(C)C(=O)O[C@H]1C[C@H](CNCc2ccccc2)C=C2C=C[C@H](C)[C@H](CC[C@@H]3C[C@@H](O)CC(=O)O3)[C@H]21 [Example 2, 6(R)-[2-[8(S)-(2,2-dimethylbutyryloxy)-2(S)-methyl-6(S)-benzylaminomethyl-1,2,6,7,8, 8a(R)-hexahydronaphthyl-1(S)]ethyl]-4(R)-hydroxy-3,4,5,6-tetrahydro-2H-pyran-2-one]	167
CCC(C)(C)C(=O)O[C@H]1C[C@H](CNC(=O)c2ccccc2)C=C2C=C[C@H](C)[C@H](CC[C@@H]3C[C@@H](O)CC(=O)O3)[C@H]21 [Example 3, 6(R)-[2-[8(S)-(2,2-dimethylbutyryloxy)-2(S)-methyl-6(S)-phenylcarbonylaminomethyl-1,2,6,7,8,8a(R)-hexahydronaphthyl-1(S)]ethyl]-4(R)-hydroxy-3,4,5,6-tetrahydro-2H-pyran-2-one]	300
CCC(C)(C)C(=O)O[C@H]1C[C@H](CNC(=O)Nc2ccccc2)C=C2C=C[C@H](C)[C@H](CC[C@@H]3C[C@@H](O)CC(=O)O3)[C@H]21 [Example 4, 6(R)-[2-[8(S)-(2,2-dimethylbutyryloxy)-2(S)-methyl-6(S)-phenylureidomethyl-1,2,6,7,8,8a(R)-hexahydronaphthyl-1(S)]ethyl]-4(R)-hydroxy-3,4,5,6-tetrahydro-2H-pyran-2-one]	294
CCC(C)(C)C(=O)O[C@H]1C[C@H](CNC(=O)NCc2ccccc2)C=C2C=C[C@H](C)[C@H](CC[C@@H]3C[C@@H](O)CC(=O)O3)[C@H]21 [Example 5, 6(R)-[2-[8(S)-(2,2-dimethylbutyryloxy)-2(S)-methyl-6(S)-benzylureidomethyl-1,2,6,7,8,8a(R)-hexahydronaphthyl-1(S)]ethyl]-4(R)-hydroxy-3,4,5,6-tetrahydro-2H-pyran-2-one]	500
